From publication PMC10746053, “Development of Novel Pyrrole Derivatives and Their Cinnamic Hybrids as Dual COX-2/LOX Inhibitors” (Molecules, 2023)
Values joined by “and” are separate entries in the source; they are usually repeats but may differ in a detail not shown here. Identical values can stand only once. Like-named read-outs stand apart in the source and are kept apart here. Each block holds one compound with its values, some of them ahead of it.

Experiments:
5-LOX = conditions: Figure 1; cited from earlier work
COX-1 = conditions: Figure 1; cited from earlier work
paw edema = conditions: Figure 1; cited from earlier work
COX-2 = conditions: Figure 1; cited from earlier work
[1] = target: T1, soybean lipoxygenase isoenzyme-1 (SLOX-1) (Glycine max, UniProt P08170); experiment: Inhibition of soybean lipoxygenase in vitro; assay type: biochemical; conditions: soybean LOX; for IC50: pH 9.00, ± SD, read-out: LOX Inh. IC50
T1 construct: purchased Sigma Chemical, Co. (St. Louis, MO, USA)
T1 sequence (P08170 1-839): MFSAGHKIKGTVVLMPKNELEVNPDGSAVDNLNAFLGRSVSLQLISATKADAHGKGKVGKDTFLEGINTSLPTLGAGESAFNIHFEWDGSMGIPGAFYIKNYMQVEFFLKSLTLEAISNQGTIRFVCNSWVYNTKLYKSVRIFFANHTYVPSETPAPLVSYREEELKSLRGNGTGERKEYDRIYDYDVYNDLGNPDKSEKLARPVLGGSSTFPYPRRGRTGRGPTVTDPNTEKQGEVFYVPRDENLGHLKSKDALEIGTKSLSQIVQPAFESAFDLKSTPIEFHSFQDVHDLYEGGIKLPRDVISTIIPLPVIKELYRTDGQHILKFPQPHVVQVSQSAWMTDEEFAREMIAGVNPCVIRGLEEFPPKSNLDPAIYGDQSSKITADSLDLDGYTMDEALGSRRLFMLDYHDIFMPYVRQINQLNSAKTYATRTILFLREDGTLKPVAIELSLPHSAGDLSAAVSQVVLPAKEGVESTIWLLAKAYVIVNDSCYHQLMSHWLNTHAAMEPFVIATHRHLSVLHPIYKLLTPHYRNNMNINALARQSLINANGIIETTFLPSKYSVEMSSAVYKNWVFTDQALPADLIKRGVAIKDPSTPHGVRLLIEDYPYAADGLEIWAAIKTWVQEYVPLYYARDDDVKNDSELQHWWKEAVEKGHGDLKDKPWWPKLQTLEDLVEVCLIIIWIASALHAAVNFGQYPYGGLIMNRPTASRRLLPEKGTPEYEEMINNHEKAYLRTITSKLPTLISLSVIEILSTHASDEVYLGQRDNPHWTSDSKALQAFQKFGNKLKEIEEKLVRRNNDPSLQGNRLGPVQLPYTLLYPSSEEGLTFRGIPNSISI
Description: In vitro anti-LOX activities were measured against soybean lipoxygenase isoenzyme-1 (SLOX-1), which is widely used as a model for mammalian LOXs.
An in vitro study was conducted as reported previously. The tested compounds were dissolved in DMSO (100 µM) and incubated at room temperature with sodium linoleate (0.1 mL) as a substrate and 0.2 mL of a soybean lipoxygenase solution in a buffer solution of Tris:HCl (pH 9.00).

[2] = Inhibition of linoleic acid lipid peroxidation (AAPH); conditions: 37 °C, ± SD
Source text: It is widely known that oxidative stress can induce lipid peroxidation. One of the major end products of the latter process are lipid-derived aldehydes, such as malondialdehyde (MDA), which is more chemically stable and membrane-permeable than ROS. These lipid aldehydes can participate in cross-linking with DNA and proteins and subsequently facilitate the development of various pathological states. Herein, we used the water-soluble 2,2′-azobis(2-methylpropionamidine) dihydrochloride (AAPH) as a free radical initiator for the in vitro antioxidant assay due to its ability to generate alkylperoxy radicals in the presence of oxygen molecules at 37 °C [53]. […] Pyrroles 1 and 2 with high lipophilicity (ClogP of 1 = 5.7, ClogP of 2 = 5.05; RM of 1 = 0.3076, RM of 2 = 0.0116) and molecular volume (MV of 1 = 318, MV of 2 = 290) values appeared to be weak antioxidants (34% and 33% at 100 μM, respectively). […] The presence of a bulkier substituent Ar^2 decreased the anti-lipid peroxidation activity of 5 (36% at 100 μM) compared to 8 (58% at 100 μM).
In vitro enzymatic assay was conducted as reported in previous studies. 2,2′-Azobis(2-methylpropionamidine) dihydrochloride (AAPH) was used as a controllable source of thermally produced alkylperoxy free radicals. The production of conjugated diene hydroperoxides via the oxidation of sodium linoleate in an aqueous dispersion at 37 °C was monitored at 234 nm. The results were compared to the reference compound, trolox (93%) (Table 2).

ovine COX-2 [3] = target: T2, ovine COX-2 (Ovis aries, UniProt P79208); experiment: Inhibition of ovine cyclooxygenase-2 (TMPD co-substrate); conditions: for inhibition at 100 µM: read-out: COX-2 Inh. % at 100 μM, 100 μM, ovine COX-2
T2 sequence (P79208 17-603): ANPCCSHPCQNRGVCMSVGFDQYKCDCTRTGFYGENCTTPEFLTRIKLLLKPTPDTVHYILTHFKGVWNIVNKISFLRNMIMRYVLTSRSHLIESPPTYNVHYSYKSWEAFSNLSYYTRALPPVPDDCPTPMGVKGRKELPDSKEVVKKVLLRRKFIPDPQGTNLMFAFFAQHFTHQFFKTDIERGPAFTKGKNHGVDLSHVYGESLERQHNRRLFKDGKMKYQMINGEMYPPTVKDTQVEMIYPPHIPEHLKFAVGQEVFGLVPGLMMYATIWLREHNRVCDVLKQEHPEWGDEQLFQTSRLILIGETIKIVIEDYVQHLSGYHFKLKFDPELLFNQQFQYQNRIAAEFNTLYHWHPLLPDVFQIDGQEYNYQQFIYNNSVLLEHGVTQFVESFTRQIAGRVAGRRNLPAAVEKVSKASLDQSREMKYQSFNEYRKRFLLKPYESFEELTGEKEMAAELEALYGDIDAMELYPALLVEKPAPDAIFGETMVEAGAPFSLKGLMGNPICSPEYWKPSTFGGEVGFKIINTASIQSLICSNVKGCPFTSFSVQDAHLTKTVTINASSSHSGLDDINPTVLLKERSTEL
Description: The oxidized TMPD has an absorbance maximum at 590 nm. COXs require heme (Fe^3+-protoporphyrin IX) as a cofactor which may dissociate from the protein during its purification. Therefore, in the in vitro enzymatic assay of ovine COX-2 inhibition, heme is added to ensure maximal enzyme activity [54]. […] The in vitro COX-2 inhibitory activity was determined using arachidonic acid (AA) as a substrate and N,N,N′,N′-tetramethyl-p-phenylenediamine (TMPD) as a co-substrate in a buffer solution of Tris:HCl (pH 8.5) [27]. Ten microliters of the DMSO solution of the compound of interest were added in a test tube containing 730 μL of buffer Tris:HCl (pH 8.5), 50 μL of heme, 10 μL of COX-2 and 100 μL of TMPD. […] A blank determination was used first to serve as a negative control.

[4] = cited from earlier work
[5] = Experimental lipophilicity as RM values by reversed-phase TLC; assay type: physicochemical; conditions: RPTLC, methanol/water 70/30 v/v, five measurements
Source text: Lipophilicity is one of the most studied physicochemical properties in the drug discovery process and is frequently employed in structure–activity relationship (SAR) studies. It contributes to the ADMET (absorption, distribution, metabolism, excretion, toxicity) properties, solubility, permeability to the potency and efficacy of drugs. […] In TLC, the retention parameter, RF, is defined as the ratio between the migration distances of the compound and of the mobile phase, both measured from the sample application position. The term RM was introduced to facilitate a linear relationship with the log P values, and it is defined as similar to the capacity factor, k, in HPLC.
Reversed-phase thin-layer chromatography (RPTLC) was used for the determination of RM values. Silica gel plates were saturated with 5% v/v liquid paraffin in petroleum ether. The mobile phase consisted of a methanol/water mixture (70/30, v/v). The plates were developed in closed chromatography tanks saturated with the mobile phase. Spots were detected under UV light or after exposure to iodine vapor. RM values were calculated from the corresponding Rf values (from five individual measurements) using […]. RM = log[(1/Rf) − 1], (2) where Rf is obtained by dividing the distance covered by the sample by the distance covered by the mobile phase.

[6] = parameters: method as in doi:10.3390/M1314; conditions: Molinspiration software; cited from earlier work
[7] = target: T1, soybean lipoxygenase isoenzyme-1 (SLOX-1); conditions: soybean LOX; read-out: LOX Inh. IC50; cited from earlier work
[8] = parameters: method as in doi:10.3390/M1314; conditions: RPTLC; cited from earlier work
ovine COX-2 [9] = target: T2, ovine COX-2; parameters: purchased Cayman; conditions: read-out: COX-2 Inh. IC50; cited from earlier work

Compound: COc1ccc(/C=C2\SC(=S)N(NC(=O)c3sc4ccccc4c3Cl)C2=O)cc1OC [II]
IC50 (5-LOX): 2.33 µM
IC50 (COX-1): 3.4 µM
% paw edema reduction (in vivo) (paw edema): 93.26%

Compound: COc1ccc(C=NNC(=O)c2sc3ccccc3c2Cl)cc1OC [III]
IC50 (5-LOX): 1.87 µM
IC50 (COX-1): 2.9 µM
IC50 (COX-2): 0.68 µM
% paw edema reduction (in vivo) (paw edema): 89.8%

IC50 [1]: 35 ± 1.6 µM
IC50 (ovine COX-2 [3]): 7.2 ± 0.3 µM
Compound: CN(C)c1ccc(-c2cn(C(=O)/C=C/c3ccccc3)cc2C(=O)c2cccs2)cc1 [compound 7, (E)-1-(3-(4-(dimethylamino)phenyl)-4-(thiophene-2-carbonyl)-1H-pyrrol-1-yl)-3-phenylprop-2-en-1-one]
ILP % at 100 μM (inhibition of lipid peroxidation) ([2]; 100 µM): 31% and 31.1 ± 1.1%

Compound: O=C(O)/C=C/c1ccccc1 [Cinnamic acid, reference compound]
ILP % at 100 μM (inhibition of lipid peroxidation) [4]: 78 ± 3.2%

IC50 [1]: 30 ± 1.6 µM
RM [5]: −0.4174
IC50 (ovine COX-2 [3]): 0.55 ± 0.3 µM
Compound: CN(C)c1ccc(/C=C/c2cn(C(=O)/C=C/c3ccccc3)cc2C(=O)c2ccccc2)cc1 [compound 5, (E)-1-(3-benzoyl-4-((E)-4-(dimethylamino)styryl)-1H-pyrrol-1-yl)-3-phenylprop-2-en-1-one]
ILP % at 100 μM (inhibition of lipid peroxidation) ([2]; 100 µM): 36% and 36.4 ± 0.4%

inhibition at 100 µM ([1]; pH 9, 100 μM, pH 9.00, read-out: LOX Inh. % at 100 μM): 43%
RM [5]: −0.3340
inhibition at 100 µM (ovine COX-2 [3]): 12%
Compound: CN(C)c1ccc(-c2c[nH]cc2C(=O)c2cccs2)cc1 [compound 3, (4-(4-(dimethylamino)phenyl)-1H-pyrrol-3-yl) (thiophen-2-yl) methanone]
ILP % at 100 μM (inhibition of lipid peroxidation) [2]: inactive
ILP % at 100 μM (inhibition of lipid peroxidation) ([2]; 100 µM): no action at all and no

IC50 [1]: 7.5 ± 0.5 µM
RM [5]: 0.0116
inhibition at 100 µM (ovine COX-2 [3]): 17%
Compound: CN(C)c1ccc(-c2c[nH]cc2C(=O)c2ccc(Cl)cc2)cc1 [compound 2, (4-chlorophenyl) (4-(4-(dimethylamino)phenyl)-1H-pyrrol-3-yl) methanone]
ILP % at 100 μM (inhibition of lipid peroxidation) ([2]; 100 µM): 33% and 32.8 ± 0.8%

IC50 [1]: 27.5 ± 1.3 µM
RM [5]: −0.4771
IC50 (ovine COX-2 [3]): 7 ± 0.6 µM
Compound: CN(C)c1ccc(-c2cn(C(=O)/C=C/c3ccccc3)cc2C(=O)c2ccc(Cl)cc2)cc1 [compound 6, (E)-1-(3-(4-chlorobenzoyl)-4-(4-(dimethylamino)phenyl)-1H-pyrrol-1-yl)-3-phenylprop-2-en-1-one]
ILP % at 100 μM (inhibition of lipid peroxidation) ([2]; 100 µM): 62% and 61.6 ± 2.3%

Compound: COc1cc(/C=c2\c(=O)[nH]n3c(=O)c4ccccc4nc23)cc(OC)c1OC [I]
IC50 (5-LOX): 2.3 ± 0.13 µM
IC50 (COX-1): 0.668 ± 0.0212 µM
IC50 (COX-2): 0.047 ± 0.0027 µM

Compound: Cc1c(C)c2c(c(C)c1O)CCC(C)(C(=O)O)O2 (centres unmarked) [Trolox, reference compound]
ILP % at 100 μM (inhibition of lipid peroxidation) [2]: 93 ± 2.5%

Compound: O=C(c1ccccc1)c1cn(C(=O)/C=C/c2ccccc2)cc1-c1ccccc1 [compound 8, (E)-1-(3-Benzoyl-4-Phenyl-1H-Pyrrol-1-Yl)-3-Phenylprop-2-En-1-One]
miLogP [6]: 6.26
ILP % at 100 μM (inhibition of lipid peroxidation) ([4]; 100 µM): 58% and 58.1 ± 1.8%
IC50 [7]: 39 ± 2.3 µM
RM [8]: −0.4771
IC50 (ovine COX-2 [9]): 6 ± 0.1 µM

IC50 [1]: 51.5 ± 1.7 µM
RM [5]: 0.3076
IC50 (ovine COX-2 [3]): 10 ± 0.8 µM
Compound: CN(C)c1ccc(/C=C/c2c[nH]cc2C(=O)c2ccc(Cl)cc2)cc1 [compound 1, (E)-(4-chlorophenyl) (4-(4-(dimethylamino)styryl)-1H-pyrrol-3-yl)methanone]
ILP % at 100 μM (inhibition of lipid peroxidation) ([2]; 100 µM): 34% and 33.8 ± 1.3%

Compound: Cc1ccc(C(C)C)c(O)c1/C=N/NC(=O)c1cc(-c2ccccc2)n[nH]1 [IV]
IC50 (5-LOX): 3.05 ± 0.067 µM
IC50 (COX-1): 10.3 ± 0.1 µM
IC50 (COX-2): 0.068 ± 0.01 µM
% paw edema reduction (in vivo) (paw edema): 81.93%

Compound: O=C(c1ccccc1)c1c[nH]cc1-c1ccccc1 [compound 4]
miLogP [6]: 3.96
ILP % at 100 μM (inhibition of lipid peroxidation) ([4]; 100 µM): 44% and 44.3 ± 1.1%
IC50 [7]: 100 ± 3.3 µM
RM [8]: −0.4102
IC50 (ovine COX-2 [9]): 0.65 ± 0.1 µM
